Holding throughout (assay type): in vivo, Swiss-Webster mice
One test deals with monocytes. In words: Monocytes by complete blood count on day 8, dosing day 1, 3, 5. The settings on record: mice, oral gavage, measured on day 8.
Test [1] relates to neutrophils. In words: Neutrophils by complete blood count on day 8, dosing day 1, 3, 5. To be noted: mice, oral gavage, measured on day 8.
For test [2], the system named is total white blood cell (WBC). The test can be described thus: Total white blood cells by complete blood count on day 8, dosing day 1, 3, 5. To be noted: mice, oral gavage, measured on day 8.
A further test has as its system lymphocytes. The test can be described thus: Lymphocytes by complete blood count on day 8, dosing day 1, 3, 5. The settings on record: mice, oral gavage, measured on day 8. As for the experimental part:
(§1) To examine the effect of compounds and methods of the present invention on increasing white blood cells, the following studies were performed. In one series of experiments, male Swiss-Webster mice were administered various compounds of the present invention via oral gavage using a ball-tipped gavage needle. […] Animals were dosed once daily for 3 or 4 days. Six hours after the final dosing, 200 μl blood samples were collected and total white blood cell, neutrophil, and lymphocyte levels were measured by complete blood count (CBC) using a CellDyn cell analyzer (Abbott Laboratories).
(§2) In another series of experiments, male Swiss-Webster mice were administered various compounds (see Table 7 and Table 8) of the present invention via oral gavage using a ball-tipped gavage needle. […] Total WBC, neutrophil, lymphocyte, and monocyte levels were measured in mice as described above on day 8 following administration of compound on day 1, day 3, and day 5.

Test [3] concerns total white blood cell (WBC). The test can be described thus: Total white blood cells by complete blood count on day 8, dosing day 1, 3, 5. The settings on record: Mus musculus, 192 h, mice, oral gavage, measured on day 8, read-out: Total WBC % Increase Over Control; for change in vivo at 100 mg/kg: 100 mg/kg on day 1, day 3 and day 5; for change in vivo at 200 mg/kg: 200 mg/kg on day 1, day 3 and day 5. The essentials: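 Male Swiss-Webster mice received test compound by oral gavage with a ball-tipped gavage needle on day 1, day 3 and day 5. On day 8, 200 μl of blood was collected and total white blood cell levels were determined by complete blood count on a CellDyn cell analyzer (Abbott Laboratories), expressed as percent change relative to control.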

Test [4] concerns neutrophils. In words: Neutrophils by complete blood count on day 8, dosing day 1, 3, 5. The settings on record: Mus musculus, Neutrophil, 192 h, mice, oral gavage, measured on day 8, read-out: Neutrophils % Increase Over Control; for change in vivo at 100 mg/kg: 100 mg/kg on day 1, day 3 and day 5; for change in vivo at 200 mg/kg: 200 mg/kg on day 1, day 3 and day 5. As for the experimental part: as §1, §2

Where [5] appears, read: Mus musculus, Monocyte, 192 h, 100 mg/kg on day 1, day 3 and day 5, read-out: Monocytes % Increase Over Control.
The mark [6] stands for this setting: 100 mg/kg on day 1, day 3 and day 5.
The mark [7] stands for this setting: Mus musculus, Lymphocyte, 192 h, 100 mg/kg on day 1, day 3 and day 5, read-out: Lymphocytes % Increase Over Control.
Setting [8] is: 20 mg/kg on day 1, day 3 and day 5.
The mark [9] stands for this setting: Mus musculus, Monocyte, 192 h, 200 mg/kg on day 1, day 3 and day 5, read-out: Monocytes % Increase Over Control.
[10] abbreviates: 200 mg/kg on day 1, day 3 and day 5.
[11] abbreviates: Mus musculus, Lymphocyte, 192 h, 200 mg/kg on day 1, day 3 and day 5, read-out: Lymphocytes % Increase Over Control.

Eleven molecules from US20110039879A1, “METHODS FOR INCREASING WHITE BLOOD CELLS” (FibroGen ,Inc., priority 2007, published 2011) can be followed below.

On to `Cc1ccc(Oc2cccc3c(C#N)nc(C(=O)NCC(=O)O)c(O)c23)cc1` [Compound BA, [(1-Cyano-4-hydroxy-5-p-tolyloxy-isoquinoline-3-carbonyl)-amino]-acetic acid], for which the change in vivo at 100 mg/kg with monocytes (setting [5]) was found to be 20%; in the test on lymphocytes (setting [7]) it was 514%; in test [3], 434%; in the test on neutrophils [4] it was 38%. In the test with monocytes (setting [6]), the Monocytes is given as 0.2 10^3 cells/μl. The Neutrophils in the test on neutrophils [1] (setting [6]) is 0.7 10^3 cells/μl. Besides, in test [2] (setting [6]), the “Total WBC” value is 24.7 10^3 cells/μl. Also, the Lymphocytes with lymphocytes (setting [6]) is listed as 23.8 10^3 cells/μl.

Turning to `O=C(O)CNC(=O)c1c(O)c2ccccc2sc1=O` [Compound BF, [(4-Hydroxy-2-oxo-2H-thiochromene-3-carbonyl)-amino]-acetic acid], the change in vivo at 20 mg/kg in the test with monocytes (Mus musculus, Monocyte, 192 h, 20 mg/kg on day 1, day 3 and day 5, read-out: Monocytes % Increase Over Control) was found to be 64%; in the test with lymphocytes (Mus musculus, Lymphocyte, 192 h, 20 mg/kg on day 1, day 3 and day 5, read-out: Lymphocytes % Increase Over Control), 12%; in test [3] (setting [8]), 17%; in the test with neutrophils [4] (setting [8]), 65%. Besides, in the test on monocytes (setting [8]), the Monocytes is listed as 0.2 10^3 cells/μl. Also, in the test on neutrophils [1] (setting [8]), the Neutrophils was 1.0 10^3 cells/μl. The “Total WBC” value in test [2] (setting [8]) is on record as 8.4 10^3 cells/μl. Besides, the Lymphocytes in the test on lymphocytes (setting [8]) is listed as 7.1 10^3 cells/μl.

With `O=C(O)CNC(=O)c1c(O)c2cccn2n(Cc2ccc(C(F)(F)F)cc2)c1=O` [Compound BG, {[4-Hydroxy-2-oxo-1-(4-trifluoromethyl-benzyl)-1,2-dihydro-pyrrolo[1,2-b]pyridazine-3-carbonyl]-amino}-acetic acid], the change in vivo at 200 mg/kg in the test with monocytes (setting [9]) worked out at 60%; in the test with lymphocytes (setting [11]), 296%; in test [3], 252%; in the test with neutrophils [4], 22%. In the test on monocytes (setting [10]), the Monocytes was 0.2 10^3 cells/μl. Also, the Neutrophils with neutrophils [1] (setting [10]) is listed as 1.0 10^3 cells/μl. For the same molecule, in test [2] (setting [10]), the “Total WBC” value is listed as 26.2 10^3 cells/μl. For the same molecule, the Lymphocytes with lymphocytes (setting [10]) is reported as 24.4 10^3 cells/μl.

For the molecule `N#Cc1nc(C(=O)NCC(=O)O)c(O)c2cc(Oc3ccc(F)cc3)ccc12` [Compound D, {[1-Cyano-6-(4-fluoro-phenoxy)-4-hydroxy-isoquinoline-3-carbonyl]-amino}-acetic acid], the Monocytes in the test on monocytes (setting [6]) is 0.2 10^3 cells/μl. Further, in the test on neutrophils [1] (setting [6]), the Neutrophils is 1.3 10^3 cells/μl. For the same molecule, the “Total WBC” value in test [2] (setting [6]) is 10.8 10^3 cells/μl. Further, the values for the change in vivo at 100 mg/kg (with lymphocytes (setting [7]); in test [3]; in the test with neutrophils [4]) were 140%, 152% and 242%, respectively. For the same molecule, in the test on lymphocytes (setting [6]), the Lymphocytes is 9.3 10^3 cells/μl.

For the molecule `Cc1cccc(C)c1Oc1ccc2c(C#N)nc(C(=O)NCC(=O)O)c(O)c2c1` [Compound E, {[1-Cyano-6-(2,6-dimethyl-phenoxy)-4-hydroxy-isoquinoline-3-carbonyl]-amino}-acetic acid], the change in vivo at 200 mg/kg with monocytes (setting [9]) is 100%; in the test with lymphocytes (setting [11]), 245%; in test [3] it was 221%; in the test with neutrophils [4], 54%. Moreover, the Monocytes in the test with monocytes (setting [10]) is listed as 0.1 10^3 cells/μl. Besides, the Neutrophils in the test with neutrophils [1] (setting [10]) was 0.8 10^3 cells/μl. For the same molecule, the “Total WBC” value in test [2] (setting [10]) is on record as 16.6 10^3 cells/μl. Moreover, the Lymphocytes with lymphocytes (setting [10]) is listed as 15.8 10^3 cells/μl.

As to `N#Cc1nc(C(=O)NCC(=O)O)c(O)c2c(Cl)cn(Cc3ccccc3)c12` [Compound F, [(1-Benzyl-3-chloro-7-cyano-4-hydroxy-1H-pyrrolo[2,3-c]pyridine-5-carbonyl)-amino]-acetic acid], the Monocytes with monocytes (setting [6]) was 0.1 10^3 cells/μl. Further, the Neutrophils in the test on neutrophils [1] (setting [6]) is reported as 0.7 10^3 cells/μl. In addition, in test [2] (setting [6]), the “Total WBC” value is 12.6 10^3 cells/μl. The change in vivo at 100 mg/kg is 86% in the test on lymphocytes (setting [7]), 81% in test [3] and 23% with neutrophils [4]. Further, in the test with lymphocytes (setting [6]), the Lymphocytes is given as 11.6 10^3 cells/μl.

As to `N#Cc1nc(C(=O)NCC(=O)O)c(O)c2c(Oc3ccc(F)cc3)cccc12` [Compound G, {[1-Cyano-5-(4-fluoro-phenoxy)-4-hydroxy-isoquinoline-3-carbonyl]-amino}-acetic acid], the change in vivo at 200 mg/kg in the test with monocytes (setting [9]) was determined as 317%; with lymphocytes (setting [11]), 148%; in test [3], 138%; with neutrophils [4] it was 48%. The Monocytes in the test with monocytes (setting [10]) was 0.2 10^3 cells/μl. Also, the Neutrophils with neutrophils [1] (setting [10]) is listed as 0.8 10^3 cells/μl. Further, the “Total WBC” value in test [2] (setting [10]) is reported as 14.3 10^3 cells/μl. The Lymphocytes in the test on lymphocytes (setting [10]) is listed as 13.2 10^3 cells/μl.

Turning to `CC(C)Oc1ccc2c(O)c(C(=O)NCC(=O)O)nc(C#N)c2c1` [Compound H, [(1-Cyano-4-hydroxy-7-isopropoxy-isoquinoline-3-carbonyl)-amino]-acetic acid], the Monocytes in the test on monocytes (setting [6]) and with monocytes (setting [10]) was 0.1 10^3 cells/μl each time. For the same molecule, the Neutrophils with neutrophils [1] (setting [6]) is 1.6 10^3 cells/μl; with neutrophils [1] (setting [10]) it was 0.7 10^3 cells/μl. Moreover, the “Total WBC” value in test [2] (setting [6]) is reported as 9.4 10^3 cells/μl; in test [2] (setting [10]) it was 37.8 10^3 cells/μl. The change in vivo at 100 mg/kg in the test on lymphocytes (setting [7]) is 120%; in test [3] it was 120%; with neutrophils [4] it was 135%. For the same molecule, the change in vivo at 200 mg/kg worked out at 963% in the test with lymphocytes (setting [11]), 783% in test [3] and 6% with neutrophils [4]. The figures for the Lymphocytes in the test on lymphocytes (setting [6]) and in the test on lymphocytes (setting [10]) were 7.7 10^3 cells/μl and 37.0 10^3 cells/μl, respectively.

As to `N#Cc1nc(C(=O)NCC(=O)O)c(O)c2ccn(Cc3ccccc3F)c12` [Compound I, {[7-Cyano-1-(2-fluoro-benzyl)-4-hydroxy-1H-pyrrolo[2,3-c]pyridine-5-carbonyl]-amino}-acetic acid], the change in vivo at 100 mg/kg in the test on monocytes (setting [5]) was 425%; with lymphocytes (setting [7]), 127%; in test [3], 95%; with neutrophils [4] it was 17%. The Monocytes with monocytes (setting [6]) is reported as 0.2 10^3 cells/μl. Further, the Neutrophils with neutrophils [1] (setting [6]) is listed as 0.8 10^3 cells/μl. Besides, the “Total WBC” value in test [2] (setting [6]) was 13.1 10^3 cells/μl. In addition, the Lymphocytes in the test with lymphocytes (setting [6]) is 12.1 10^3 cells/μl.

For `Cc1cc(Cl)cc(C)c1Oc1ccc2c(C#N)nc(C(=O)NCC(=O)O)c(O)c2c1` [Compound J, {[6-(4-Chloro-2,6-dimethyl-phenoxy)-1-cyano-4-hydroxy-isoquinoline-3-carbonyl]-amino}-acetic acid], the change in vivo at 100 mg/kg in the test on monocytes (setting [5]) amounted to 300%; in the test on lymphocytes (setting [7]), 236%; in test [3], 208%; in the test with neutrophils [4] it was 8%. Also, the Monocytes with monocytes (setting [6]) was 0.3 10^3 cells/μl. In addition, in the test with neutrophils [1] (setting [6]), the Neutrophils is recorded as 0.9 10^3 cells/μl. In test [2] (setting [6]), the “Total WBC” value is 23.0 10^3 cells/μl. In addition, the Lymphocytes in the test with lymphocytes (setting [6]) was 21.7 10^3 cells/μl.

For the molecule `N#Cc1nc(C(=O)NCC(=O)O)c(O)c2c(Oc3ccc(Cl)cc3)cccc12` [Compound K, {[5-(4-Chloro-phenoxy)-1-cyano-4-hydroxy-isoquinoline-3-carbonyl]-amino}-acetic acid], the change in vivo at 200 mg/kg in the test on monocytes (setting [9]) was found to be 233%; in the test on lymphocytes (setting [11]), 562%; in test [3] it was 491%; with neutrophils [4], 34%. Also, the Monocytes in the test with monocytes (setting [10]) is 0.4 10^3 cells/μl. In addition, the Neutrophils in the test with neutrophils [1] (setting [10]) is 0.8 10^3 cells/μl. Moreover, in test [2] (setting [10]), the “Total WBC” value is given as 33.0 10^3 cells/μl. In addition, the Lymphocytes in the test on lymphocytes (setting [10]) is 31.8 10^3 cells/μl.
